Where two headings read alike, the source gives them in different places.
Columns and labels:
[1] = target: T1, hNT-R2 (Homo sapiens, UniProt O95665); test: inositol phosphate (IP3) production in CHO-2076.62 (hNT-R2) line; format: cell-based
Description: The CHO-2076.62 (hNT-R2) line was used to study the signalization mechanisms involved.

[2] = target: T1, hNT-R2; test: intracellular Ca^2+ concentration in CHO-2076.62 (hNT-R2) line; format: cell-based; conditions: same response in the absence of extracellular calcium
Description: In principle, this increase in the concentration of intracellular calcium ions is due to the release of internal reservoirs and not to the influx of extracellular calcium since the same response was found in the absence of extracellular calcium.

[3] = target: T1, hNT-R2; test: microphysiometry (Cytosensor) with CHO 2076.62 (hNT-R2) cells; format: cell-based
Experimental: The microphysiometry experiments were carried out with the Cytosensor Microphysiometer (Molecular Devices, Menlo Park, Calif.). Each chamber of the instrument containing 3×10^5 cells was perfused with DMEM medium (Sigma, St. Louis, Mo.) containing 40 mM NaCl at 37° C. The rate of acidification was measured every 60 seconds (flowrate […]). 15-second injections of agonists were carried out. For the inhibition experiments, cells were exposed to the antagonists for 30 minutes before being perfused with the agonist.

[4] = tested on: analgesia induced by NT; conditions: rats; cited from earlier work
[5] = target: T2, rNT-R2 receptor (Rattus norvegicus, UniProt Q63384); test: displacement of ^125 I-neurotensin from rNT-R2 expressed in COS cells; format: binding
T2 construct: rNT-R2 receptor expressed in COS-3 cells after transfection of the cloned cDNA; expressed in transfected cells; vector pSVL-rNT-R2
T2 sequence (Q63384 1-416): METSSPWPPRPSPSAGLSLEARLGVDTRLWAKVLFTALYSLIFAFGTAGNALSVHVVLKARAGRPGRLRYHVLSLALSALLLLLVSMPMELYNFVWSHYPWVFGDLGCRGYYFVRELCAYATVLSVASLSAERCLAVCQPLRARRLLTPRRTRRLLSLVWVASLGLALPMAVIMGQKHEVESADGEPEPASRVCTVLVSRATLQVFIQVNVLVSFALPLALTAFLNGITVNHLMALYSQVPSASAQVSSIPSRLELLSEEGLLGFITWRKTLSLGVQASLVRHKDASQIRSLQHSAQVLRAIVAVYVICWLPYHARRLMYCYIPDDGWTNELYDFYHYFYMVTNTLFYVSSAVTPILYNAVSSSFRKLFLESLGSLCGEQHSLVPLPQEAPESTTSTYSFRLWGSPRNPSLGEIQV
Experimental: BSA (bovine serum albumin), PMSF (phenylmethylsulphonyl fluoride) and 1,10-phenanthroline are marketed by Sigma. […] Levocabastine was obtained from Janssen Pharmaceutica.
(§1) The pharmacological characterization was carried out using […] cells transfected with pSVL-rNT-R2 recombinant vector. Three days after transfection, the cell monolayers were washed twice with 50 mM Tris-HCl pH 7.5, 0.1% BSA, 0.1% NaN3, 1 mM 1,10-phenanthroline (binding buffer) before binding to the radioligand.
After incubation for one hour at room temperature, the medium was aspirated and the cell monolayers were washed twice with the incubation buffer. Finally, the cells were solubilized with 1 ml of 1N NaOH and the bound radioactivity was evaluated.

[6] = tested on: cloned receptor; conditions: cited from earlier work
[7] = tested on: hypothermia induced by NT; conditions: rats; cited from earlier work
[8] = tested on: hypothermia induced by NT; conditions: mice; cited from earlier work
[9] = tested on: analgesia induced by NT; conditions: mice; cited from earlier work
[10] = tested on: HT29 cells; conditions: antagonism of neurotensin effect in vitro, read-out: IC50, formation of IP1 in HT29 cells; cited from earlier work
[11] = tested on: type-1 receptor; conditions: cited from earlier work
[12] = tested on: rotation in mice; conditions: cited from earlier work
[13] = tested on: NT-1R; conditions: CHO cells transfected with NT-1R; cited from earlier work
[14] = tested on: release of acetylcholine in rat striatum; conditions: cited from earlier work
[15] = tested on: untransfected cells, or cells transfected with the DNA vector alone; test: binding of radiolabelled neurotensin to untransfected or vector-transfected COS cells
[16] = target: T2, rNT-R2 receptor; test: saturation binding of ^125 I-neurotensin to rNT-R2 expressed in COS cells; conditions: Scatchard analysis
Experimental: BSA (bovine serum albumin), PMSF (phenylmethylsulphonyl fluoride) and 1,10-phenanthroline are marketed by Sigma. The selective, non-peptide antagonist SR 48692 was synthesized by Sanofi Recherche, France. Levocabastine was obtained from Janssen Pharmaceutica.
as §1
Saturation experiments were carried out in 1 ml of binding buffer containing ^125 I-neurotensin over a range from 0.05 to 14.5 nM. After incubation for one hour at room temperature, the medium was aspirated and the cell monolayers were washed twice with the incubation buffer. Finally, the cells were solubilized with 1 ml of 1N NaOH and the bound radioactivity was evaluated. The non-specific binding was defined as being the binding in the presence of a (500-fold) excess of unlabelled ligand and, under these conditions, was less than 1% of the total radioactivity.

[17] = 0.2 nM ^125 I-neurotensin, rNT-R2 in COS cells, read-out: IC50 (apparent), competition with ^125 I-neurotensin
[18] = binding with the type-1 receptor

T1 sequence (O95665 whole entry A54V): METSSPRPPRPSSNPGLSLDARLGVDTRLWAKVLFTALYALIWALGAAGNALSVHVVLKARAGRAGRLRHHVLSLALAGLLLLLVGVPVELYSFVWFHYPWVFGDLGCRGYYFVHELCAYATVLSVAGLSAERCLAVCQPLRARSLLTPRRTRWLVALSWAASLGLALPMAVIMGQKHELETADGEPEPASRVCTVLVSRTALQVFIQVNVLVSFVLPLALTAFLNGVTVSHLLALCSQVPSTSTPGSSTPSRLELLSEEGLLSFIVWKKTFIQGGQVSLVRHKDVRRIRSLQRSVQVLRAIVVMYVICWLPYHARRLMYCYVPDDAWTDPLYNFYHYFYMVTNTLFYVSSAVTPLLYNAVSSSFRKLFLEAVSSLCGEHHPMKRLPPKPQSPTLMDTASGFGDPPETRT

COc1cccc(OC)c1-c1cc(C(=O)NC2(C(=O)O)C3CC4CC(C3)CC2C4)nn1-c1ccc(C(=O)N(C)CCCN(C)C)cc1C(C)C (centres unmarked) [SR142948]
increase in IP3 [1]: slight and transient (20-second) increase
intracellular concentration of Ca^2+ response [2]: significant response

COc1cccc(OC)c1-c1cc(C(=O)NC2(C(=O)O)C3CC4CC(C3)CC2C4)nn1-c1ccnc2cc(Cl)ccc12 (centres unmarked) [SR 48692, {2-[(1-(7-chloro-4-quinolinyl)-5-(2,6-di-methoxyphenyl)pyrazol-3-yl)carbonylamino]tricyclo-(3.3.1.1.3.7)decane-2-carboxylic} acid]
inhibition of the agonist effect of SR142948 ([3]; CHO 2076.62 (hNT-R2), SR48692 at doses at which there is no agonist effect): antagonized
relative effectiveness at inhibiting the effect of SR142948 ([3]; inhibition curves, SR48692 versus neurotensin): more effective than neurotensin
effect on analgesia induced by NT [4]: insensitive
IC50 [5, 17]: 22.5 nM
inhibition of the binding of NT to the cloned receptor [6]: inhibits the binding of NT to the cloned receptor
effect on hypothermia induced by NT [7]: insensitive
effect on hypothermia induced by NT [8]: insensitive
effect on analgesia induced by NT [9]: insensitive
intracellular concentration of Ca^2+ response [2]: significant response

COc1cccc(OC)c1-c1cc(C(=O)NC2(C(=O)O)C3CC4CC(C3)CC2C4)nn1-c1ccc(C(=O)N(C)CCCN(C)C)cc1C(C)C.Cl (centres unmarked) [SR 142948 A, 2-{(5-(2,6-dimethoxyphenyl)-1-(4-(N-(3-dimethylamino-propyl)-N-methylcarbamoyl)-2-isopropylphenyl)-1H-pyrazole-3-carbonyl)amino}adamantane-2-carboxylic acid hydrochloride]
IC50 [10]: 3.9 nM
effect on analgesia induced by NT [4]: antagonizes
displacement of [^3 H]-SR 48692 [11, 18]: completely displaces
displacement of [^125 I]-neurotensin [11, 18]: completely displaces
affinity ([11]; type-1 receptor (Gully et al.)): of the order of a nanomole
antagonism of neurotensin effect: rotation [12]: antagonizes
antagonism of neurotensin mobilization of intracellular calcium ions [13]: antagonizes
effect on hypothermia induced by NT [7]: antagonizes
effect on hypothermia induced by NT [8]: antagonizes
effect on analgesia induced by NT [9]: antagonizes
antagonism of neurotensin effect: release of acetylcholine [14]: antagonizes

C[C@@H]1CN([C@H]2CC[C@](C#N)(c3ccc(F)cc3)CC2)CC[C@]1(C(=O)O)c1ccccc1 [levocabastine]
IC50 [5]: 10 nM

^125 I-neurotensin: ^125 I-[Tyr^3 ]-labelled neurotensin marketed by NEN
binding to untransfected cells or cells transfected with vector alone [15]: did not bind
binding capacity (Bmax) [16]: 180,000±3000 sites per cell

neuromedin N: ligand related to neurotensin, used as competitor (IPYIL; Neuromedin N; UniProt P30990 144-148, looked up)
IC50 [5, 17]: 5.1 nM

Source: patent US6274333A (Sanofi-Synthelabo, priority 1997, dated 2001)
